Laboratory results reported in publication PMC10914731, “Homo-BacPROTAC-induced degradation of ClpC1 as a strategy against drug-resistant mycobacteria” (Nature Communications, 2024).
Converted amounts (≈) assume the structure as drawn. “And” between values parts separate entries of the source, which are not always exact repeats. Identical values can stand only once. Like-named read-outs stand apart in the source and are kept apart here.

Columns and labels:
[1] = tested on: Mtb (katG del) ATCC 35822; test: microbe, parasite or virus in culture; assay type: cell-based; conditions: Mycobacterium tuberculosis
[2] = tested on: Msm #607; test: Minimum bactericidal concentration (MBC), Msm #607; assay type: cell-based, Mycobacterium smegmatis; conditions: for MBC: Mycolicibacterium smegmatis
[3] = tested on: Mycobacterium avium; test: microbe, parasite or virus in culture; assay type: cell-based
[4] = Hepatocyte stability, mice; assay type: in vitro ADME
How it was run: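 1 µM cpd (DMSO <0.05% final), cryopreserved hepatocytes ~1e6 cells/mL, 50% serum, pH 7.4, 37 °C/5–10% CO2; up to 6 h, 6 timepoints; ACN quench, HPLC-MS/MS; t1/2 → CL via well-stirred model, % Qh.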

[5] = tested on: Mtb ATCC 35825; test: microbe, parasite or virus in culture; assay type: cell-based
[6] = tested on: Staphylococcus aureus; test: MIC ESKAPES panel, Staphylococcus aureus; assay type: cell-based
Experimental: (§1) Minimum inhibitory concentration (MIC) against ESKAPES panel of Gram positive and Gram negative pathogens (Enterococcus faecium, Staphylococcus aureus, Klebsiella pneumoniae, Acinetobacter baumannii, Pseudomonas aeruginosa, Enterobacter cloacae and Salmonella typhimurium [ESKAPES panel]) were determined at the FNDR by the standard broth dilution method [CLSI, M100]. […] Mueller Hinton broth (MHB) medium was used to grow ESKAPES panel strains. The individual cultures were added as 200 μL (inoculum of 3–7 × 10^5 cfu/ml) to the respective assay plates in each well to all columns, except the media control (200 μL of medium). […] The assay plates were incubated at 37 °C, and the results were noted on the 2nd day as turbidometric readout. The clear wells indicated inhibition of growth, while the turbid wells indicated uninhibited growth.

[7] = tested on: Caco-2 monolayers; test: in vitro
How it was run: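 Values are bidirectional Caco-2 apparent permeabilities, P(A−B) and P(B−A), given in 10^-6 cm s-1. The efflux ratio divides P(B−A) by P(A−B), and intrinsic permeability averages the two directions.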

[8] = tested on: Mtb # 8673; test: microbe, parasite or virus in culture; assay type: cell-based
[9] = tested on: Pseudomonas aeruginosa; test: MIC ESKAPES panel, Pseudomonas aeruginosa; assay type: cell-based
Experimental: as §1

[10] = tested on: M. tuberculosis H37Rv (ATCC 27294); test: microbe, parasite or virus in culture; assay type: cell-based
[11] = tested on: Msm 607; test: microbe, parasite or virus in culture; assay type: cell-based
[12] = single well replicates, listed as 8 (UdSBAI-0545)

COC(c1ccccc1)C1NC(=O)C(C)NC(=O)C(CC(C)CO)N(C)C(=O)C(Cc2cn(Cc3cn(CCOCCOCCOCCOCCn4cc(Cn5cc(CC6NC(=O)C(C(C)C)NC(=O)C(CC(C)C)N(C)C(=O)C(C(C)C)NC(=O)C(C(OC)c7ccccc7)NC(=O)C(C)NC(=O)C(CC(C)CO)N(C)C6=O)c6ccccc65)nn4)nn3)c3ccccc23)NC(=O)C(C(C)C)NC(=O)C(CC(C)C)N(C)C(=O)C(C(C)C)NC1=O (stereo not shown) [Compound 8]
MIC ([1]; ATCC35822, M. tuberculosis ATCC 35822, single well replicates): 0.195 µM (≈ 0.423 µg/mL) | MIC ([1]; ATCC35822, Mtb (katG del) ATCC 35822, mean ± SD, n = 3 well replicates): 0.2 µM (≈ 0.434 µg/mL) | colony growth after replating (MBC assay) ([2]; Msm #607, up to 50 µM, result in words): growth of colonies could be observed across all tested concentrations | MBC ([2]; ATCC607, read-out: MBC (from Set 3) Msm ATCC 607): > 109 µg/mL and > 50 µM | MBC ([2]; read-out: MBC Msm #607, individual example): > 50 µM and > 108 µg/mL | MIC ([3]; Experiment 1, listed as 8 (UdSBI-0545), read-out: MIC Mycobacterium avium): >50 µM | MIC (µg/ml) Mycobacterium avium ([3]; Experiment 2, three replicate columns): >108.53 µg/mL | MIC ([3]; Experiment 2, three replicate columns, read-out: MIC (µM) Mycobacterium avium): >50 µM | MIC ([3]; Mycobacterium avium, Experiment 1, read-out: MIC Mycobacterium avium): > 109 µg/mL | MIC ([3]; Mycobacterium avium, Experiment 2, three replicate columns, read-out: MIC (µM) Mycobacterium avium): > 50 µM | MIC ([3]; Mycobacterium avium, Experiment 2, three replicate columns, read-out: MIC (µg/ml) Mycobacterium avium): > 109 µg/mL | MIC ([3]; Mycobacterium avium, mean ± SD, read-out: MIC Mycobacterium avium): > 50 µM | Hepatocyte Stability Mouse QH ([4]; Mouse): 50.268% | Hepatocyte Mice ([4]; clearance in hepatocytes): 32 %Qh | MIC ([5]; Mycobacterium tuberculosis, ATCC35825, mean, n = 2 well replicates): < 0.1 µM and < 0.2 µg/mL | MIC ([5]; Mycobacterium tuberculosis, ATCC35825, single well replicates): < 0.21 µg/mL and < 0.1 µM | MIC [5, 12]: <0.1 µM | MIC Mtb ATCC 35825 [5, 12]: <0.21 µg/mL | MIC ([6]; Gram-Positive Bacteria, replicates 1-3, listed as 8 (UdSBI-0545)): >50 µM | MIC ([6]; Staphylococcus aureus, Gram positive, n = 3 well replicates): > 50 µM | MIC ([6]; Staphylococcus aureus, Gram-Positive Bacteria, replicates 1-3): > 109 µg/mL | CACO permeability PEAB ([7]; apical to basolateral): <0.0000027 cm/sec | Caco-2 permeability P (A-B) ([7]; apical to basolateral): < 0.6 10-6 cm s-1 | CACO permeability PEBA ([7]; basolateral to apical): <0.000001 cm/sec | Caco-2 permeability P (B-A) ([7]; basolateral to apical): < 0.3 10-6 cm s-1 | Caco-2 Int. Perm ([7]; mean value of P(A−B) and P(B−A)): 0.4 10-6 cm s-1 | MIC ([8]; Mycobacterium tuberculosis, mean, n = 2 well replicates): < 0.1 µM and < 0.2 µg/mL | MIC ([8]; Mycobacterium tuberculosis, single well replicates): < 0.1 µM and < 0.21 µg/mL | MIC [8, 12]: <0.1 µM | MIC Mtb # 8673 [8, 12]: <0.21 µg/mL | MIC ([9]; Gram-Negative Bacteria, replicates 1-3, listed as 8 (UdSBI-0545)): >50 µM | MIC ([9]; Pseudomonas aeruginosa, Gram negative, n = 3 well replicates): > 50 µM | MIC ([9]; Pseudomonas aeruginosa, Gram-Negative Bacteria, replicates 1-3): > 109 µg/mL | MIC ([10]; Mycobacterium tuberculosis, M. tuberculosis H37Rv 27294, single well replicates, read-out: MIC): 0.098 µM (≈ 0.213 µg/mL) | MIC ([10]; Mycobacterium tuberculosis, M. tuberculosis H37Rv strain, read-out: MIC Mtb H37Rv Mean ± SD): 0.4 ± 0.4 µM (≈ 0.868 µg/mL) | MIC ([10]; Mycobacterium tuberculosis, Mtb H37Rv (Supplementary Table 2), read-out: MIC Mtb): 0.4 ± 0.4 µM (≈ 0.868 µg/mL) | MIC ([10]; Mycobacterium tuberculosis, Mtb H37Rv, mean ± SD, n = 3 well replicates, read-out: MIC): 0.2 ± 0.1 µM (≈ 0.434 µg/mL) | MIC ([10]; Mycobacterium tuberculosis, Set 1, read-out: MIC (Mtb H37Rv) Set 1): 0.1 µM and 0.21 µg/mL | MIC ([10]; Mycobacterium tuberculosis, Set 2, read-out: MIC (Mtb H37Rv) Set 2): 0.05 µM and 0.1 µg/mL | MIC ([10]; Mycobacterium tuberculosis, Set 3, done at a different day than Set 1 and Set 2, read-out: MIC (Mtb H37Rv) Set 3): 0.1 µM and 0.21 µg/mL | MIC ([10]; Mycobacterium tuberculosis, individual example (Supplementary Table 11), read-out: MIC Mtb H37Rv): 0.1 µM and 0.2 µg/mL | MIC ([10]; Mycobacterium tuberculosis, mean of 3 experiments +/- SD, unit taken from the sets above in the same table, read-out: MIC data (Mtb H37Rv) (+/- SD)): 0.08 µM and 0.17 µg/mL | MIC ([10]; individual measurements (source data), listed as 8 (UdSBI-0545), read-out: Mtb MIC): 0.780 µM (2×) and 0.097 µM (2×) | MIC ([11]; Mycolicibacterium smegmatis, 607, read-out: MIC Msm 607): 1.9 ± 0.9 µM (≈ 4.12 µg/mL) | MIC ([11]; Mycolicibacterium smegmatis, 607, read-out: MIC Msm #607, individual example (Supplementary Table 11)): 1.6 µM and 3.4 µg/mL | MIC ([11]; Mycolicibacterium smegmatis, ATCC607, Set-1, read-out: MIC (Msm ATCC607) Set-1): 3.12 µM and 6.78 µg/mL | MIC ([11]; Mycolicibacterium smegmatis, ATCC607, Set-2, read-out: MIC (Msm ATCC607) Set-2): 1.56 µM and 3.39 µg/mL | MIC ([11]; Mycolicibacterium smegmatis, ATCC607, Set-3, done at a different day than Set 1 and Set 2, read-out: MIC (Msm ATCC607) Set-3): 1.56 µM and 3.39 µg/mL | MIC ([11]; Mycolicibacterium smegmatis, ATCC607, mean of 3 experiments ± SD, read-out: MIC including standard deviations (Msm ATCC607)): 2.08 µM and 4.5 µg/mL
